The subject of assay [1] is α2-adrenoceptors. Nature of the assay: Binding assay, displacement of 1 nM 3H-RX821002 in rat neocortical membranes. To be noted: ratio of affinities on rat neocortical α2- vs α1-adrenoceptors. Here is the method: (§1) Affinities for α2-adrenoceptors and α1-adrenoceptors were estimated by determining the displacement of 1 nM ^3H-RX821002 (α2) or 0.1 nM ^3H-prazosin (α1) from α-adrenoceptors in rat neocortical membranes. For this purpose membranes were incubated with different concentrations of test compounds spanning a concentration range of five orders of magnitude. Nonspecific binding was defined with 10 μM phentolamine. Membranes were used at a protein concentration of 2 mg/ml in a total volume of 250 μl. The incubation buffer consisted of 50 mM TRIS-HCl, pH 7.7. After a 30 min incubation at 25° C. samples were filtered through glass fibre filter and filters were washed three times with 4 ml icecold wash buffer consisting of 10 mM TRIS-HCl, pH 7.7. Filters were then dried, impregnated with a scintillation cocktail and counted in a scintillation counter. Experimental data was analyzed using the commercial nonlinear least squares computer program LIGAND.
(§2) Each compound was tested in at least three independent experiments for its affinity on rat neocortical α2- or α1-adrenoceptors.

The target in assay [2] is T1, α2-adrenoceptors.
T1 construct: pKi α2; other: rat neocortical membranes, 1 nM 3H-RX821002, 30 min at 25° C., at least three independent experiments
The assay is described as above. To be noted: rat neocortical membranes, 1 nM 3H-RX821002, 30 min at 25° C., at least three independent experiments. Here is the method: as §1, §2

For a further assay, the target named is α1-adrenoceptors. Nature of the assay: Binding assay, displacement of 0.1 nM 3H-prazosin in rat neocortical membranes. To be noted: 30 min at 25° C., at least three independent experiments. The method, then:
as §1, §2

In the case of `Cc1cccc([C@H](C)c2cnc[nH]2)c1C` [Compound 5, dexmedetomidine, reference compound], in the assay with α2-adrenoceptors [1], the “alpha2 vs alpha1 selectivity” value came out at 90. Moreover, the “pKi α2” value at α2-adrenoceptors [2] is 8.42. Further, the “pKi α1” value at α1-adrenoceptors came out at 6.48.
Taken in the same sequence, the figures for `CC(c1c[nH]cn1)C1CCc2ccccc21.Cl` (stereo not drawn) [Compound 3, 4-[1-(Indan-1-yl)-ethyl]-1H-imidazole hydrochloride] were 142, 8.35 and 6.21.
Take `Cl.Oc1ccc2c(c1)C(Cc1c[nH]cn1)CC2` (stereo not drawn) [Compound 2, 3-(1H-Imidazol-4-ylmethyl)-indan-5-ol hydrochloride]: in the assay with α2-adrenoceptors [1], the “alpha2 vs alpha1 selectivity” value is on record as 126. The “pKi α2” value on α2-adrenoceptors [2] is 8.70. The “pKi α1” value at α1-adrenoceptors is recorded as 6.61.
On to `Cl.Oc1ccc2c(c1)C(Cc1c[nH]cn1)CCC2` (stereo not drawn) [Compound 4, 8-(1H-Imidazol-4-ylmethyl)-5,6,7,8-tetrahydronaphthalen-2-ol hydrochloride], for which the “alpha2 vs alpha1 selectivity” value in the assay on α2-adrenoceptors [1] came out at 3. In addition, at α2-adrenoceptors [2], the “pKi α2” value was found to be 7.39. Also, the “pKi α1” value at α1-adrenoceptors stood at 6.85.
Taken in the same sequence, the figures for `Cc1cccc2c1CCC2c1c[nH]cn1.Cl` (stereo not drawn) [Compound 1, 4-(4-Methylindan-1-yl)-1H-imidazole hydrochloride] were 14, 8.44 and 7.31.
